{
  "source": "patent US8772330B2",
  "about": "“Inhibitor(s) of transporters or uptake of monoaminergic neurotransmitters” (State of Oregon acting by and through the State Board of …, priority 2009, dated 2014)",
  "key": {"[1]": {"target": "T1, norepinephrine (NE) transporter (Homo sapiens, UniProt P23975)"}, "[2]": {"target": "T2, dopamine (DA) transporter (Homo sapiens, UniProt Q01959)", "T2 sequence (Q01959 whole entry)": "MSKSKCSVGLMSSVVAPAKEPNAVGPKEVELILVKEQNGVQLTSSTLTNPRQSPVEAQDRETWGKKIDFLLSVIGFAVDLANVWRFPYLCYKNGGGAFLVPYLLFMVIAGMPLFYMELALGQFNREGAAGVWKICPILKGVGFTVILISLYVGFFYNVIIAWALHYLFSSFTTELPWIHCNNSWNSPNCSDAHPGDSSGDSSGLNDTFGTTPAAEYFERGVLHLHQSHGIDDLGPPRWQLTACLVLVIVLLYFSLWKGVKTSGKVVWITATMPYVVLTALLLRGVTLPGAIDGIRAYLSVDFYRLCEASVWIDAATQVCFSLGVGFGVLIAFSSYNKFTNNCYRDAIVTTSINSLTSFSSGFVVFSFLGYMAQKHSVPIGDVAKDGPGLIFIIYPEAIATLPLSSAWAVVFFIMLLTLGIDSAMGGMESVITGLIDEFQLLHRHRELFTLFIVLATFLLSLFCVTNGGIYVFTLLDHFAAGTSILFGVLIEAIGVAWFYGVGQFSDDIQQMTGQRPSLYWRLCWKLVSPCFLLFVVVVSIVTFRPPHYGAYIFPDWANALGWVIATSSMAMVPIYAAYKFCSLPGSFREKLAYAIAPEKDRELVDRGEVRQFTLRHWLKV", "settings": "for Slope, Dopamine (DA) transporter: Table 1, binding curve slope"}, "[3]": {"target": "T3, serotonin (5-HT) transporter (Homo sapiens, UniProt P31645)", "T3 sequence (P31645 whole entry)": "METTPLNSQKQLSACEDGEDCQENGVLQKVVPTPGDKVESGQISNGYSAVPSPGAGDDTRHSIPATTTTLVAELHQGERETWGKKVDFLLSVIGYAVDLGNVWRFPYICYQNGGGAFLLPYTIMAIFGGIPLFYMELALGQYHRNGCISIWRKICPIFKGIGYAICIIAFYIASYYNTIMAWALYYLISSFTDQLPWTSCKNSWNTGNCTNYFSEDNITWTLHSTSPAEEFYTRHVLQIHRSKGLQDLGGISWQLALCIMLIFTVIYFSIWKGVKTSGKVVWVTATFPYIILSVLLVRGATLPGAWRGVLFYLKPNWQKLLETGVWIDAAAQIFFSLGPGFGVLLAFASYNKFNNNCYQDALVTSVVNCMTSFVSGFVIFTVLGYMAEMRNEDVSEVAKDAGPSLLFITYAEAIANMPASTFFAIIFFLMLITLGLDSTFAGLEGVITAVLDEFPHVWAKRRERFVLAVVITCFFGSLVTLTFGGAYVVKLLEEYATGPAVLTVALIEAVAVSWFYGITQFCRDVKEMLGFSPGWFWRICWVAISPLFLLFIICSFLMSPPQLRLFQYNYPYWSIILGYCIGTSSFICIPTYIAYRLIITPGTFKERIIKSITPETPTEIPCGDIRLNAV", "settings": "for Slope, Serotonin (5-HT) transporter: Table 1, binding curve slope"}, "[4]": {"target": "T2, dopamine (DA) transporter", "settings": "Table 2; data derived from literature; read-out: Affinity (Ki), Dopamine (DA) transporter; cited from earlier work"}, "[5]": {"target": "T1, norepinephrine (NE) transporter", "settings": "Table 2; data derived from literature; read-out: Affinity (Ki), Norepinephrine (NE) transporter; cited from earlier work"}, "[6]": {"target": "T3, serotonin (5-HT) transporter", "settings": "Table 2; data derived from literature; read-out: Affinity (Ki), 5-Hydroxy Tryptamine (5-HT) transporter; cited from earlier work"}},
  "note": "Structures can show the parent of a compound that is named as a salt.",
  "data": [
    {"compound": "CNCC1CC1(Oc1cccc2ccccc12)c1cccs1", "note": "(racemic) [DWJW0003, (Z)-N-Methyl-[2-(naphthalen-1-yloxy)-2-(thiophen-2-yl)cyclopropyl]methanamine Hydrochloride]", "values": [
      {"measurement": "Slope, Norepinephrine (NE) transporter", "setting": "[1]; Table 1, binding curve slope", "value": "−0.84"},
      {"measurement": "times more potent than DWJW0002 as inhibitor of norepinephrine transporter", "setting": "[1]; with reference to Table 1", "value": "about 9 times"},
      {"measurement": "Slope, Dopamine (DA) transporter", "setting": "[2]", "value": "−1"},
      {"measurement": "times more potent than DWJW0002 as inhibitor of dopamine transporter", "setting": "[2]; with reference to Table 1", "value": "about 2 times"},
      {"measurement": "Slope, Serotonin (5-HT) transporter", "setting": "[3]", "value": "−1.19"}
    ]},
    {"compound": "CN(C)CCCN1c2ccccc2CCc2ccccc21", "note": "[Imipramine, reference compound]", "values": [
      {"measurement": "Slope, Serotonin (5-HT) transporter", "setting": "[3]", "value": "−1.06"}
    ]},
    {"compound": "Fc1ccc(C(OCCN2CCN(CCCc3ccccc3)CC2)c2ccc(F)cc2)cc1", "note": "[GBR12909, reference compound]", "values": [
      {"measurement": "Slope, Dopamine (DA) transporter", "setting": "[2]", "value": "−1.25"},
      {"measurement": "times more potent than DWJW0002 as inhibitor of dopamine transporter", "setting": "[2]; with reference to Table 1", "value": 16, "unit": "times"},
      {"measurement": "times more potent than DWJW0003 as inhibitor of dopamine transporter", "setting": "[2]; with reference to Table 1", "value": 8, "unit": "times"}
    ]},
    {"compound": "CNC[C@@H]1C[C@]1(Oc1cccc2ccccc12)c1cccs1", "note": "(racemic) [DWJW0002, (E)-N-Methyl-[2-(naphthalen-1-yloxy)-2-(thiophen-2-yl)cyclopropyl)methanamine Hydrochloride]", "values": [
      {"measurement": "Slope, Dopamine (DA) transporter", "setting": "[2]", "value": "−1.11"},
      {"measurement": "Slope, Serotonin (5-HT) transporter", "setting": "[3]", "value": "−0.92"},
      {"measurement": "times more potent than DWJW0003 as inhibitor of serotonin transporter", "setting": "[3]; with reference to Table 1", "value": "about 3 times"}
    ]},
    {"compound": "C#Cc1ccc([C@@H]2CN3CCC[C@@H]3c3ccccc32)cc1", "note": "[JNJ-7925476]", "values": [
      {"measurement": "Ki", "setting": "[4]", "value": "5.2 ± 1", "unit": "nM"},
      {"measurement": "Ki", "setting": "[5]", "value": "16.6 ± 7", "unit": "nM"},
      {"measurement": "Ki", "setting": "[6]", "value": "0.9 ± 0.1", "unit": "nM"}
    ]}
  ]
}
